Measurements: US20020026053A1, “Novel 3-(substituted) -2- indolinones compounds and use thereof as inhibitors of protein kinase activity” (priority 1997, published 2002)

Experiments:
FLK-1 receptor = test: FLK-1 Assay (cellular/catalytic ELISA, VEGF-stimulated phosphotyrosine); assay type: cell-based; set-up: concentration or dose not given beside the values
In short: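 NIH3T3 C7#3 cells engineered to express Flk-1 were serum-starved overnight (0.1% FBS), then exposed to compound for 2 h at 37 °C (final dilution 1:200, 0.5% DMSO) before VEGF stimulation. Lysates captured on anti-FLK-1 antiserum plates; phosphotyrosine detected by UB40 antibody/POD-ABTS ELISA versus untreated controls.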

PDGF-R = PDGF-R Assay (cellular ELISA, U1242 cells); assay type: cell-based; set-up: concentration or dose not given beside the values
In short: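 U1242 cells seeded in 0.5% serum, serum-starved, then exposed to compound for 2 hr at 37°C before 5–10 min ligand stimulation and lysis in HNTG. Lysate captured on receptor-antibody-coated plates; phosphotyrosine detected with polyclonal anti-pTyr, goat anti-rabbit IgG and ABTS/H2O2, A410 (ref 630 nm), versus untreated cells.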

Row | Structure (SMILES) | Flk Kinase % Inhibition (P.110) (FLK-1 receptor) [%] | PDGF Kinase % Inhibition (P.119) (PDGF-R) [%]
1 | CCOC(=O)c1c(C)[nH]c(C=C2C(=O)Nc3c(Br)cc(Br)c(C)c32)c1C [10718/H02] | −1.4 | 
2 | COc1cc(Br)c(O)c(C=C2C(=O)Nc3c(Br)cc(Br)c(C)c32)c1 [10718/H03] | −5.0 | 
3 | Cc1c(Br)cc(Br)c2c1C(=Cc1ccc3ccccc3c1O)C(=O)N2 [10718/H04] | −5.7 | 
4 | CCOC(=O)CCc1c(C(=O)OCC)[nH]c(C=C2C(=O)Nc3c(Br)cc(Br)c(C)c32)c1CC(=O)OCC [10718/H05] | 1.0 | 
5 | CCOC(=O)c1cc(C=C2C(=O)Nc3c(Br)cc(Br)c(C)c32)oc1C [10718/H06] | 18.2 | 
6 | COC(=O)c1[nH]c(C)c(C=C2C(=O)Nc3c(Br)cc(Br)c(C)c32)c1C(=O)OC [10718/H07] | −3.0 | 
7 | Cc1c(Br)cc(Br)c2c1C(=Cc1ccc(Cl)c([N+](=O)[O-])c1)C(=O)N2 [10718/H08] | −0.5 | 
8 | CCOc1cccc(C=C2C(=O)Nc3c(Br)cc(Br)cc32)c1O [10734/A02] | 4.1 | −3.8
9 | O=C1Nc2c(Br)cc(Br)cc2C1=Cc1cc(Cl)cc(Cl)c1O [10734/A03] | 10.1 | 22.3
10 | O=C1Nc2c(Br)cc(Br)cc2C1=Cc1cc(Cl)ccc1O [10734/A04] | 0.6 | 11.7
11 | CCN(CC)c1ccc(C=C2C(=O)Nc3c(Br)cc(Br)cc32)c(O)c1 [10734/A05] | 9.1 | 2.9
12 | O=C1Nc2c(Br)cc(Br)cc2C1=Cc1ccc([N+](=O)[O-])cc1 [10734/A06] | −6.4 | −9.9
13 | O=C1Nc2c(Br)cc(Br)cc2C1=Cc1cc(Br)cc(Br)c1O [10734/A07] | −9.4 | 21.9
14 | O=C1Nc2c(Br)cc(Br)cc2C1=Cc1cccc(F)c1O [10734/A08] | 0.1 | 9.1
15 | O=C1Nc2c(Br)cc(Br)cc2C1=Cc1ccc(O)c(Br)c1 [10734/A09] | −7.9 | −9.5
16 | CC(C)(C)c1ccc(C=C2C(=O)Nc3c(Br)cc(Br)cc32)cc1 [10734/A10] | 4.4 | 26.3
17 | O=C1Nc2c(Br)cc(Br)cc2C1=Cc1ccc(Br)s1 [10734/A11] | 6.3 | 5.5
18 | CCOc1cccc(C=C2C(=O)Nc3ccc(I)cc32)c1O [10734/B02] | 8.5 | −2.9
19 | O=C1Nc2ccc(I)cc2C1=Cc1cc(Cl)cc(Cl)c1O [10734/B03] | 21.7 | 13.0
20 | O=C1Nc2ccc(I)cc2C1=Cc1cc(Cl)ccc1O [10734/B04] | 2.8 | 14.4
21 | CCN(CC)c1ccc(C=C2C(=O)Nc3ccc(I)cc32)c(O)c1 [10734/B05] | −2.3 | 56.3
22 | O=C1Nc2ccc(I)cc2C1=Cc1ccc([N+](=O)[O-])cc1 [10734/B06] | −0.9 | 0.2
23 | O=C1Nc2ccc(I)cc2C1=Cc1cc(Br)cc(Br)c1O [10734/B07] | 9.1 | 18.8

Row | Structure (SMILES) | Flk Kinase % Inhibition (P.110) (FLK-1 receptor) [%] | PDGF Kinase % Inhibition (P.119) (PDGF-R) [%]
24 | O=C1Nc2ccc(I)cc2C1=Cc1cccc(F)c1O [10734/B08] | −0.5 | −2.4
25 | O=C1Nc2ccc(I)cc2C1=Cc1ccc(O)c(Br)c1 [10734/B09] | −32.3 | 12.6
26 | CC(C)(C)c1ccc(C=C2C(=O)Nc3ccc(I)cc32)cc1 [10734/B10] | 15.7 | 7.7
27 | O=C1Nc2ccc(I)cc2C1=Cc1ccc(Br)s1 [10734/B11] | 12.6 | −5.5
28 | CCOc1cccc(C=C2C(=O)Nc3ccc(Br)c(C)c32)c1O [10734/C02] | −3.9 | 36.0
29 | Cc1c(Br)ccc2c1C(=Cc1cc(Cl)cc(Cl)c1O)C(=O)N2 [10734/C03] | −5.6 | 24.5
30 | Cc1c(Br)ccc2c1C(=Cc1cc(Cl)ccc1O)C(=O)N2 [10734/C04] | −37.6 | 24.5
31 | CCN(CC)c1ccc(C=C2C(=O)Nc3ccc(Br)c(C)c32)c(O)c1 [10734/C05] | −10.3 | 3.8
32 | Cc1c(Br)ccc2c1C(=Cc1ccc([N+](=O)[O-])cc1)C(=O)N2 [10734/C06] | −1.7 | −0.2
33 | Cc1c(Br)ccc2c1C(=Cc1cc(Br)cc(Br)c1O)C(=O)N2 [10734/C07] | −2.7 | 32.0
34 | Cc1c(Br)ccc2c1C(=Cc1cccc(F)c1O)C(=O)N2 [10734/C08] | −34.2 | 5.5
35 | Cc1c(Br)ccc2c1C(=Cc1ccc(O)c(Br)c1)C(=O)N2 [10734/C09] | −13.3 | 11.3
36 | Cc1c(Br)ccc2c1C(=Cc1ccc(C(C)(C)C)cc1)C(=O)N2 [10734/C10] | 10.1 | 17.4
37 | Cc1c(Br)ccc2c1C(=Cc1ccc(Br)s1)C(=O)N2 [10734/C11] | 6.3 | 9.1
38 | CCOc1cccc(C=C2C(=O)Nc3ccc(S(=O)(=O)NC)cc32)c1O [10734/D02] | −11.5 | 6.4
39 | CNS(=O)(=O)c1ccc2c(c1)C(=Cc1cc(Cl)cc(Cl)c1O)C(=O)N2 [10734/D03] | 17.4 | 24.1
40 | CNS(=O)(=O)c1ccc2c(c1)C(=Cc1cc(Cl)ccc1O)C(=O)N2 [10734/D04] | 6.1 | 13.5
41 | CCN(CC)c1ccc(C=C2C(=O)Nc3ccc(S(=O)(=O)NC)cc32)c(O)c1 [10734/D05] | 2.4 | 8.2
42 | CNS(=O)(=O)c1ccc2c(c1)C(=Cc1ccc([N+](=O)[O-])cc1)C(=O)N2 [10734/D06] | 0.0 | −9.1
43 | CNS(=O)(=O)c1ccc2c(c1)C(=Cc1cc(Br)cc(Br)c1O)C(=O)N2 [10734/D07] | 14.7 | 28.1
44 | CNS(=O)(=O)c1ccc2c(c1)C(=Cc1cccc(F)c1O)C(=O)N2 [10734/D08] | 2.5 | 2.0
45 | CNS(=O)(=O)c1ccc2c(c1)C(=Cc1ccc(O)c(Br)c1)C(=O)N2 [10734/D09] | −11.6 | 42.2
46 | CNS(=O)(=O)c1ccc2c(c1)C(=Cc1ccc(C(C)(C)C)cc1)C(=O)N2 [10734/D10] | 11.1 | 9.9
